Consider 2 molecules from US20240352066A1, “ANTIMICROBIAL COMPOUNDS AND THE METHOD OF USE” (priority 2021, published 2024).

≈ marks a conversion by molar mass, not a printed value. Where a SMILES comes first, the peptide text is derived from it. [ ]: non-standard residue; d: D form. N(tridecyl)Gly = CCCCCCCCCCCCCNCC(=O)O; Gly(N-2-aminoethyl) = NCCNCC(=O)O; Gly(N-cHex) = O=C(O)CNC1CCCCC1; Nleu = CC(C)CNCC(=O)O; Nlys = NCCCCNCC(=O)O

One series deals with C. neoformans. It counts as cell-based, Cryptococcus neoformans. Conditions: 72 h.
Series [1] has as its system HepG2 hepatocellular carcinoma cells. Kind of series: Mammalian cytotoxicity, MTT, HepG2. It counts as cell-based, human. An outline of the steps:
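HepG2 cells (1×10^5 cells/mL, phenol-red-free DMEM, 10% FBS) were exposed to 2-fold dilutions of compound at 1.56–200 μg/mL final, in triplicate, for 72 h at 37 °C, 5% CO2. MTT was added for 3 h and, after DMSO solubilization, absorbance was read at 570 nm. TD50 is the concentration giving a 50% growth reduction versus the water vehicle, reported as the mean of biological replicates ± SD.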

The subject of series [2] is Klebsiella pneumoniae ATCC 13883. It counts as cell-based. To be noted: ATCC 13883, 24 h. As to the method: (§1) The minimum inhibitory concentration (MIC) of peptoids against the ESKAPE bacteria (Enterococcus faecium ATCC 6569; Staphylococcus aureus ATCC 29213; Klebsiella pneumoniae ATCC 13883; Acinetobacter 55aumannii ATCC 19606; Pseudomonas aeruginosa ATCC 25619; Enterococcus faecalis ATCC 29212; and Escherichia coli ATCC 25922) was determined following CLSI guidelines (CLSI. Methods for Dilution Antimicrobial Susceptibility Tests for Bacteria That Grow Aerobically, 11th Edition. (Clinical and Laboratory Standards Institute, 2018). The MIC against Mycobacterium smegmatis was also determined following CLSI guidelines (Woods et al., Susceptibility Testing of Mycobacteria, Nocardiae, and Other Aerobic Actinomycetes, 2nd edition. (2011)). Colonies picked from streaked tryptic soy agar plates were added to tryptic soy broth (TSB) to achieve a turbidity of OD600=0.08-0.15. Inoculant was diluted 1:200 into cation adjust Mueller Hinton Broth (CAVHB) and 90 μL was plated into each well of a 96 well black-wall plate. 2-fold serial dilutions of 10× peptoid (10 μL) were added to each well in triplicate and incubated at 37° C. for 24 hours for the ESKAPE bacteria and 72 hours for M. smegmatis. Tetracycline (20 μg/mL) was used as a positive control with DI water was used as a vehicle control. Following incubation for the ESKAPE bacteria, PrestoBlue (10 μL) was added to each well and incubated at 37° C. for one hour before measuring fluorescence on a SpectraMax M5 plate reader (Ex. 555 nm; Em. 585 nm). Following incubation for M. smegmatis, wells were scored following CLSI guidelines to determine MIC. This assay was repeated three times on separate days.

For series [3], the system named is Escherichia coli ATCC 25922. It counts as cell-based. To be noted: ATCC 25922, 24 h. As to the method: as §1

On to `CCCCCCCCCCCCCNCC(=O)N(CC(=O)N(CCCCN)CC(=O)N(CCN)CC(=O)N(CC(N)=O)CC(C)C)CC(C)C` [Compound 9] (H-[N(tridecyl)Gly][Nleu][Nlys][Gly(N-2-aminoethyl)][Nleu]-NH2), for which the “C. neoformans MIC” value in the series on C. neoformans was found to be 3.13 µg/mL.
Regarding `CCCCCCCCCCCCCNCC(=O)N(CC(=O)N(CCCCN)CC(=O)N(CCN)CC(=O)N(CC(N)=O)C1CCCCC1)C1CCCCC1` [RMG8-8, Ntri-Ncha-Nlys-Nae-Ncha] (H-[N(tridecyl)Gly][Gly(N-cHex)][Nlys][Gly(N-2-aminoethyl)][Gly(N-cHex)]-NH2), in the series with C. neoformans, the “MIC C. neoformans” value worked out at 1.6 µg/mL (≈ 2.1 µM). The “TD50 HepG2” value in series [1] came to 189 µg/mL. Besides, in series [2], the “MIC K. pneumoniae” value amounted to 100 µg/mL (≈ 131 µM). In addition, in series [3], the “MIC E. coli” value amounted to 12.5 µg/mL (≈ 16.4 µM).
